The values that follow come from patent publication US20030212052A1, “Use of ursdeoxycholic acid for potentiation of the phototoxic effect of photodynamic therapy” (priority 2003, published 2003).

One series deals with hepatoma cell line. In words: Promotion of PDT efficacy with lysosomal sensitizer in the hepatoma cell line. Type of series: cell-based, murine. Conditions: lysosomal sensitizer Npe6, hepatoma cell line. As to the method: Cell lines. Studies have been carried out with the murine leukemia L1210 and murine hepatoma hepa 1c1c7 cell lines along with primary rat hepatocyte cultures. Except for the latter, cells are grown in tissue culture. The L1210 cell line is grown in suspension culture in Fischer's medium containing 10% horse serum. The murine hepatoma 1c1c7 cell line was obtained from Dr. J. Whitlock, Jr. (Stanford University, CA). Cells were cultured on either commercially available plastic tissue cutureware, or poly-L-lysine coated glass coverslips or discs, and grown at 37° C. in a-minimal essential medium (aMEM) containing 5% fetal bovine serum and antibiotics. Cultures were passaged by incubation with a trypsin+EDTA solution (0.25% trypsin, 1 mM EDTA in Hank's Balanced Salts Solution). Determination of PDT efficacy. […] The cells were then lysed and levels of caspase-3 activity are assessed using a fluorescent plate reader. […] These substrates were cleaved by caspase-3 to form fluorescent products that were then detected. The plate readers take periodic readings of the emerging fluorescence, permitting a rate to be assessed. […] Protein levels in the lysates were also determined, so that the net result was in terms of caspase-3 activity per mg protein per minute. Photokilling was assessed by clonogenic assays involving the plating of known numbers of cells. […]

The conditions of series [1]: cited from earlier work.
Series [2] relates to murine hepatoma 1c1c7 cell line. As to the kind of experiment: Photokilling assessed by clonogenic assay after SnET2 PDT. Type of series: cell-based. To be noted: for number of colonies: irradiation 270 mJ/cm^2 at 630-700 nm, colonies counted four days later, mean±SD of 3-4 plates. The protocol: Cell lines. Studies have been carried out with the murine leukemia L1210 and murine hepatoma hepa 1c1c7 cell lines along with primary rat hepatocyte cultures. Except for the latter, cells are grown in tissue culture. The L1210 cell line is grown in suspension culture in Fischer's medium containing 10% horse serum. The murine hepatoma 1c1c7 cell line was obtained from Dr. J. Whitlock, Jr. (Stanford University, CA). Cells were cultured on either commercially available plastic tissue cutureware, or poly-L-lysine coated glass coverslips or discs, and grown at 37° C. in a-minimal essential medium (aMEM) containing 5% fetal bovine serum and antibiotics. Cultures were passaged by incubation with a trypsin+EDTA solution (0.25% trypsin, 1 mM EDTA in Hank's Balanced Salts Solution). Photokilling was assessed by clonogenic assays involving the plating of known numbers of cells. After several days in cell culture, the number of resulting colonies reflected the number of viable cells that survive PDT. Freshly prepared suspensions of 1c1c7 cells were plated in 60 mm culture dishes at a density of 500 cells/dish. Approximately 18 hours later cultures were treated with PDT sensitizer and/or UDCA. After 30 minutes of incubation culture dishes were washed once with complete medium and then refed with complete medium. Refed cultures were subsequently irradiated and returned to incubators. Cultures were refed every third day, and stained with crystal violet once colonies were of sufficient size to score. […] After irradiation of 270 mJ/cm^2 at 630-700 nm, the plates were incubated and the colonies were counted four days later. The data represents the mean±a standard deviation of three to four plates.

The conditions of series [3]: cited from earlier work. This is another data set of the same source.
The conditions of series [4]: UDCA analogs/conjugates.

Molecules are shown by their SMILES.

Consider `C=Cc1c(C)c2cc3nc(c(CC(=O)N[C@@H](CC(=O)[O-])C(=O)[O-])c4nc(cc5[nH]c(cc1[nH]2)c(C)c5CC)C(C)=C4C(=O)[O-])[C@@H](CCC(=O)[O-])[C@@H]3C.[Na+].[Na+].[Na+].[Na+]` [Npe6], for which the “promotion of photodynamic therapy efficacy by the potentiator” value in the series on hepatoma cell line was “no evidence of promotion”.
For `C[C@H](CCC(=O)O)[C@H]1CC[C@H]2[C@@H]3[C@@H](O)C[C@@H]4C[C@H](O)CC[C@]4(C)[C@H]3CC[C@]12C` [UDCA, ursodeoxycholic acid], the hepatic extraction result in series [1] (once absorbed after oral administration, absence of liver disease) is given as “about 50%”. Moreover, the “absorption after oral administration” value in series [1] (oral administration, passive diffusion) is given as “incomplete”. Further, the figures for the number of colonies in series [2] (UDCA 10 micromoles + SnET2 (2-mM)) and in series [2] (UDCA 100 micromoles + SnET2 (2-mM)) were 12±5 colonies and 1±0.7 colonies, respectively. For the same compound, the colonies as percent in series [2] (UDCA 10 micromoles + SnET2 PDT) is listed as 20%; in series [2] (UDCA 100 micromoles + SnET2 PDT), 1.3%. In addition, the solubility in chloraform entry in series [3] (chloraform) is listed as “slightly soluble”. In series [3] (ethanol and glacial acetic acid), the “solubility in ethanol and glacial acetic acid” value was “freely soluble”. Moreover, in series [3] (ether), the solubility in ether result is reported as “sparingly soluble”. Besides, the solubility in water result in series [3] (water) is recorded as “practically insoluble”.
As to `C[C@H](CCC(=O)NCCS(=O)(=O)O)[C@H]1CC[C@H]2[C@@H]3[C@@H](O)C[C@@H]4C[C@H](O)CC[C@]4(C)[C@H]3CC[C@]12C` [UDCA-taurine], the “promotion of photodynamic therapeutic photokilling” value in series [4] is reported as “effective”.
Take `C[C@H](CCC(=O)NCC(=O)O)[C@H]1CC[C@H]2[C@@H]3[C@@H](O)C[C@@H]4C[C@H](O)CC[C@]4(C)[C@H]3CC[C@]12C` [UDCA-glycine]: in series [4], the “promotion of photodynamic therapeutic photokilling” value is “effective”.
